Data published in PubChem BioAssay (NCI).
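All cell lines were grown in 96-well plates and treated with compound for 48 hours. Here, GI50 denotes the concentration required for 50% inhibition of growth. TGI: total growth inhibition.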

Assays:
Test in all cases: DTP human tumour cell line panel, 48 h
RPMI-8226 leukemia = system: RPMI-8226 leukemia
PC-3 prostate = system: PC-3 prostate
SF-295 CNS = system: SF-295 CNS
SW-620 colon = system: SW-620 colon
IGROV1 ovarian = system: IGROV1 ovarian
HCC-2998 colon = system: HCC-2998 colon
CCRF-CEM leukemia = system: CCRF-CEM leukemia
SNB-19 CNS = system: SNB-19 CNS
NCI/ADR-RES ovarian = system: NCI/ADR-RES ovarian
MDA-MB-435 = system: MDA-MB-435
A498 renal = system: A498 renal
LOX IMVI melanoma = system: LOX IMVI melanoma
HOP-62 NSCLC = system: HOP-62 NSCLC
MOLT-4 leukemia = system: MOLT-4 leukemia
SR leukemia = system: SR leukemia
SK-OV-3 ovarian = system: SK-OV-3 ovarian
UO-31 renal = system: UO-31 renal
HCT-116 colon = system: HCT-116 colon
NCI-H23 lung = system: NCI-H23 lung
A549 NSCLC = system: A549 NSCLC
MALME-3M melanoma = system: MALME-3M melanoma
BT-549 breast = system: BT-549 breast
HL-60(TB) leukemia = system: HL-60(TB) leukemia
M14 melanoma = system: M14 melanoma
CAKI-1 renal = system: CAKI-1 renal
UACC-62 melanoma = system: UACC-62 melanoma
COLO 205 colon = system: COLO 205 colon
U251 CNS = system: U251 CNS
UACC-257 melanoma = system: UACC-257 melanoma
SN12C renal = system: SN12C renal
NCI-H522 lung = system: NCI-H522 lung
OVCAR-8 ovarian = system: OVCAR-8 ovarian
OVCAR-4 ovarian = system: OVCAR-4 ovarian
RXF 393 renal = system: RXF 393 renal
DU-145 prostate = system: DU-145 prostate
SNB-75 CNS = system: SNB-75 CNS
SF-268 CNS = system: SF-268 CNS
OVCAR-5 ovarian = system: OVCAR-5 ovarian
HCT-15 colon = system: HCT-15 colon
T-47D breast = system: T-47D breast
SK-MEL-28 melanoma = system: SK-MEL-28 melanoma
NCI-H226 lung = system: NCI-H226 lung
KM12 colon = system: KM12 colon
NCI-H460 lung = system: NCI-H460 lung
K-562 leukemia = system: K-562 leukemia
TK-10 renal = system: TK-10 renal
SF-539 CNS = system: SF-539 CNS
OVCAR-3 ovarian = system: OVCAR-3 ovarian
HOP-92 NSCLC = system: HOP-92 NSCLC
MCF7 breast = system: MCF7 breast
SK-MEL-5 melanoma = system: SK-MEL-5 melanoma
HT29 colon = system: HT29 colon
786-0 renal = system: 786-0 renal
HS 578T breast = system: HS 578T breast
ACHN renal = system: ACHN renal
MDA-MB-231 breast = system: MDA-MB-231 breast

SMILES: CCCCCCC(O)(c1ccc(F)cc1)C(CN1CCOCC1)c1ccccc1 (configuration not stated)
- GI50 (RPMI-8226 leukemia): 5.48 µM
- TGI (RPMI-8226 leukemia): 21.7 µM
- GI50 (PC-3 prostate): 5.24 µM
- TGI (PC-3 prostate): 21.3 µM
- GI50 (SF-295 CNS): 15.3 µM
- TGI (SF-295 CNS): 31.5 µM
- GI50 (SW-620 colon): 12.2 µM
- TGI (SW-620 colon): 26.3 µM
- GI50 (IGROV1 ovarian): 12.8 µM
- TGI (IGROV1 ovarian): 41.9 µM
- GI50 (HCC-2998 colon): 13.8 µM
- TGI (HCC-2998 colon): 29.3 µM
- GI50 (CCRF-CEM leukemia): 13.9 µM
- TGI (CCRF-CEM leukemia): 32.9 µM
- GI50 (SNB-19 CNS): 12.8 µM
- TGI (SNB-19 CNS): 27.5 µM
- GI50 (NCI/ADR-RES ovarian): 12.1 µM
- TGI (NCI/ADR-RES ovarian): 34.2 µM
- GI50 (MDA-MB-435): 15.8 µM
- TGI (MDA-MB-435): 41.7 µM
- GI50 (A498 renal): 11.6 µM
- TGI (A498 renal): 30 µM
- GI50 (LOX IMVI melanoma): 16.2 µM
- TGI (LOX IMVI melanoma): 31.1 µM
- GI50 (HOP-62 NSCLC): 19.2 µM
- TGI (HOP-62 NSCLC): 35.3 µM
- GI50 (MOLT-4 leukemia): 13.3 µM
- TGI (MOLT-4 leukemia): 32.4 µM
- GI50 (SR leukemia): 11.9 µM
- TGI (SR leukemia): 29.8 µM
- GI50 (SK-OV-3 ovarian): 16 µM
- TGI (SK-OV-3 ovarian): 36.7 µM
- GI50 (UO-31 renal): 11.6 µM
- TGI (UO-31 renal): 26.4 µM
- GI50 (HCT-116 colon): 8.53 µM
- TGI (HCT-116 colon): 24.6 µM
- GI50 (NCI-H23 lung): 11.1 µM
- TGI (NCI-H23 lung): 30.6 µM
- GI50 (A549 NSCLC): 11.7 µM
- TGI (A549 NSCLC): 29.3 µM
- GI50 (MALME-3M melanoma): 15 µM
- TGI (MALME-3M melanoma): 33.4 µM
- GI50 (BT-549 breast): 14.7 µM
- TGI (BT-549 breast): 29.6 µM
- GI50 (HL-60(TB) leukemia): 12 µM
- TGI (HL-60(TB) leukemia): 31.6 µM
- GI50 (M14 melanoma): 16.3 µM
- TGI (M14 melanoma): 34.4 µM
- GI50 (CAKI-1 renal): 12.5 µM
- TGI (CAKI-1 renal): 28.9 µM
- GI50 (UACC-62 melanoma): 11.4 µM
- TGI (UACC-62 melanoma): 27.7 µM
- GI50 (COLO 205 colon): 12.1 µM
- TGI (COLO 205 colon): 27 µM
- GI50 (U251 CNS): 12.2 µM
- TGI (U251 CNS): 25.1 µM
- GI50 (UACC-257 melanoma): 10.3 µM
- TGI (UACC-257 melanoma): 27.3 µM
- GI50 (SN12C renal): 12.7 µM
- TGI (SN12C renal): 28.3 µM
- GI50 (NCI-H522 lung): 8.14 µM
- TGI (NCI-H522 lung): 22.3 µM
- GI50 (OVCAR-8 ovarian): 14.2 µM
- TGI (OVCAR-8 ovarian): 34.8 µM
- GI50 (OVCAR-4 ovarian): 14.2 µM
- TGI (OVCAR-4 ovarian): 29.8 µM
- GI50 (RXF 393 renal): 5.26 µM
- TGI (RXF 393 renal): 19 µM
- GI50 (DU-145 prostate): 14.6 µM
- TGI (DU-145 prostate): 28.7 µM
- GI50 (SNB-75 CNS): 14.4 µM
- TGI (SNB-75 CNS): 35.9 µM
- GI50 (SF-268 CNS): 13 µM
- TGI (SF-268 CNS): 28.4 µM
- GI50 (OVCAR-5 ovarian): 13.8 µM
- TGI (OVCAR-5 ovarian): 26.8 µM
- GI50 (HCT-15 colon): 11.5 µM
- TGI (HCT-15 colon): 24.7 µM
- GI50 (T-47D breast): 10.4 µM
- TGI (T-47D breast): 23.8 µM
- GI50 (SK-MEL-28 melanoma): 16.4 µM
- TGI (SK-MEL-28 melanoma): 34.5 µM
- GI50 (NCI-H226 lung): 8.63 µM
- TGI (NCI-H226 lung): 24.8 µM
- GI50 (KM12 colon): 12.4 µM
- TGI (KM12 colon): 28.4 µM
- GI50 (NCI-H460 lung): 13.4 µM
- TGI (NCI-H460 lung): 29.3 µM
- GI50 (K-562 leukemia): 14.9 µM
- TGI (K-562 leukemia): 37.7 µM
- GI50 (TK-10 renal): 18 µM
- TGI (TK-10 renal): 32.8 µM
- GI50 (SF-539 CNS): 15.6 µM
- TGI (SF-539 CNS): 29.6 µM
- GI50 (OVCAR-3 ovarian): 12.5 µM
- TGI (OVCAR-3 ovarian): 25.4 µM
- GI50 (HOP-92 NSCLC): 12.8 µM
- TGI (HOP-92 NSCLC): 26.1 µM
- GI50 (MCF7 breast): 11.7 µM
- TGI (MCF7 breast): 24.4 µM
- GI50 (SK-MEL-5 melanoma): 4.64 µM
- TGI (SK-MEL-5 melanoma): 18.6 µM
- GI50 (HT29 colon): 5.37 µM
- TGI (HT29 colon): 19.9 µM
- GI50 (786-0 renal): 13.2 µM
- TGI (786-0 renal): 27.3 µM
- GI50 (HS 578T breast): 14.8 µM
- TGI (HS 578T breast): 40 µM
- GI50 (ACHN renal): 12.3 µM
- TGI (ACHN renal): 24.9 µM
- GI50 (MDA-MB-231 breast): 11.4 µM
- TGI (MDA-MB-231 breast): 26.5 µM
